Results as given in patent US20210040118A1, “IMMUNOMODULATORS, COMPOSITIONS AND METHODS THEREOF” (BETTA PHARMACEUTICALS CO., LTD, priority 2018, published 2021).

The compounds below were run against T1, PD-1/PD-L1 (Homo sapiens, UniProt Q9NZQ7) (assay: PD-1/PD-L1 homogenous time-resolved fluorescence (HTRF) binding assay). Details: recombinant human PD-L1 (19-238) His-tag / human PD-1 (25-167) Fc tag, class symbols.
T1 construct: Recombinant human PD-L1 protein (19-238) with a His-tag at the C-terminus; purchased AcroBiosystems PD1-H5229 (PD-L1); PD1-H5257 (PD-1)
Method in brief: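 HTRF binding of human PD-1 (25-167, Fc-tagged) at 3 nM and PD-L1 (19-238, His-tagged) at 10 nM, preincubated 40 min with inhibitor in PBS pH 7.4, 0.05% Tween-20, 0.1% BSA, 1% DMSO, 25°C. Eu anti-IgG (1 nM) and anti-His-APC (20 nM) added, 60 min; 665/620 nm ratio; IC50 from curve fit.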

T1 sequence (Q9NZQ7 19-238): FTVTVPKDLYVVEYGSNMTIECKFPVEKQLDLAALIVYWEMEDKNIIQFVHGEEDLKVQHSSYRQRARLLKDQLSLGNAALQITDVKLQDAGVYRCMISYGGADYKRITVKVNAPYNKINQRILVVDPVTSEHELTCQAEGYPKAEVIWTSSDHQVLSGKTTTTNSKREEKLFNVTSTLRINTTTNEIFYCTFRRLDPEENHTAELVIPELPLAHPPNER

`Cc1c(NC(=O)c2nnc(CNCCO)s2)cccc1-c1cccc(NC(=O)c2nnc(CNCCO)s2)c1C` [Example 73, N,N′-(2,2′-dimethyl-[1,1′-biphenyl]-3,3′-diyl)bis(5-(((2-hydroxyethyl)amino)methyl)-1,3,4-thiadiazole-2-carboxamide)] and `Cc1c(NC(=O)c2nc3c(s2)CN(CCO)CC3)cccc1-c1cccc(NC(=O)c2nc3c(s2)CN(CCO)CC3)c1C` [Example 82, N,N′-(2,2′-dimethyl-[1,1′-biphenyl]-3,3′-diyl)bis(5-(2-hydroxyethyl)-4,5,6,7-tetrahydrothiazolo[5,4-c]pyridine-2-carboxamide)] cannot be ordered by IC50: < 25 nM for the first, < 25 nM for the second.

`N#Cc1c(NC(=O)c2nc3c(s2)CNCC3)cccc1-c1cccc(NC(=O)c2nc3c(s2)CNCC3)c1C#N` [Example 74, N,N′-(2,2′-dicyano-[1,1′-biphenyl]-3,3′-diyl)bis(4,5,6,7-tetrahydrothiazolo[5,4-c]pyridine-2-carboxamide)] and `O=C(Nc1cccc(-c2cccc(NC(=O)c3nc4c(s3)CNCC4)c2Cl)c1Cl)c1nc2c(s1)CNCC2` [Example 89, N,N′-(2,2′-dichloro-[1,1′-biphenyl]-3,3′-diyl)bis(4,5,6,7-tetrahydrothiazolo[5,4-c]pyridine-2-carboxamide)] cannot be ordered by IC50: < 25 nM for the first, < 25 nM for the second.

First: Cc1c(NC(=O)c2nc3c(s2)CN(Cc2ccc(Cl)c(Cl)c2)CC3)cccc1-c1cccc(NC(=O)c2nc3c(s2)CN(Cc2ccc(Cl)c(Cl)c2)CC3)c1C [Example 75, N,N′-(2,2′-dimethyl-[1,1′-biphenyl]-3,3′-diyl)bis(5-(3,4-dichlorobenzyl)-4,5,6,7-tetrahydrothiazolo[5,4-c]pyridine-2-carboxamide)]
Second: Cc1c(NC(=O)c2nc3c(s2)CN(CC#N)CC3)cccc1-c1cccc(NC(=O)c2nc3c(s2)CN(CC#N)CC3)c1C [Example 80, N,N′-(2,2′-dimethyl-[1,1′-biphenyl]-3,3′-diyl)bis(5-(cyanomethyl)-4,5,6,7-tetrahydrothiazolo[5,4-c]pyridine-2-carboxamide)]
The IC50 of the first is higher: 100 to 200 nM for the first, < 25 nM for the second. The second is the more potent here.

`Cc1c(NC(=O)c2nc3c(s2)CN(CC(C)(C)CO)CC3)cccc1-c1cccc(NC(=O)c2nc3c(s2)CN(CC(C)(C)CO)CC3)c1C` [Example 76, N,N′-(2,2′-dimethyl-[1,1′-biphenyl]-3,3′-diyl)bis(5-(3-hydroxy-2,2-dimethylpropyl)-4,5,6,7-tetrahydrothiazolo[5,4-c]pyridine-2-carboxamide)] and `Cc1c(NC(=O)c2nc3c(s2)CN(CCCC(=O)O)CC3)cccc1-c1cccc(NC(=O)c2nc3c(s2)CN(CCCC(=O)O)CC3)c1C` [Example 78, 4,4′-((((2,2′-dimethyl-[1,1′-biphenyl]-3,3′-diyl)bis(azanediyl))bis(carbonyl))bis(6,7-dihydrothiazolo[5,4-c]pyridine-2,5(4H)-diyl))dibutyric acid] cannot be ordered by IC50: < 25 nM for the first, < 25 nM for the second.

Compared with `Cc1c(NC(=O)c2nc3c(s2)CN(C(C)C)CC3)cccc1-c1cccc(NC(=O)c2nc3c(s2)CN(C(C)C)CC3)c1C` [Example 77, N,N′-(2,2′-dimethyl-[1,1′-biphenyl]-3,3′-diyl)bis(5-isopropyl-4,5,6,7-tetrahydrothiazolo[5,4-c]pyridine-2-carboxamide)], `Cc1c(NC(=O)c2nc3c(s2)CN(C(C)C(=O)O)CC3)cccc1-c1cccc(NC(=O)c2nc3c(s2)CN(C(C)C(=O)O)CC3)c1C` (stereo not drawn) [Example 79, 2,2′-((((2,2′-dimethyl-[1,1′-biphenyl]-3,3′-diyl)bis(azanediyl))bis(carbonyl))bis(6,7-dihydrothiazolo[5,4-c]pyridine-2,5(4H)-diyl))dipropionic acid] is lower in IC50: 25 to 100 nM for the first, < 25 nM for the second.

`Cc1c(NC(=O)c2nc3c(s2)CN(CCCN2CCOCC2)CC3)cccc1-c1cccc(NC(=O)c2nc3c(s2)CN(CCCN2CCOCC2)CC3)c1C` [Example 81, N,N′-(2,2′-dimethyl-[1,1′-biphenyl]-3,3′-diyl)bis(5-(3-morpholinopropyl)-4,5,6,7-tetrahydrothiazolo[5,4-c]pyridine-2-carboxamide)] and `O=C(Nc1cccc(-c2cccc(NC(=O)c3nc4c(s3)CN(CCO)CC4)c2Cl)c1Cl)c1nc2c(s1)CN(CCO)CC2` [Example 91, N,N′-(2,2′-dichloro-[1,1′-biphenyl]-3,3′-diyl)bis(5-(2-hydroxyethyl)-4,5,6,7-tetrahydrothiazolo[5,4-c]pyridine-2-carboxamide)] cannot be ordered by IC50: < 25 nM for the first, < 25 nM for the second.

`CN1CCc2nc(C(=O)N3CCc4c(-c5cccc6c5CCN6C(=O)c5nc6c(s5)CN(C)CC6)cccc43)sc2C1` [Example 83, [4,4′-biindoline]-1,1′-diylbis((5-methyl-4,5,6,7-tetrahydrothiazolo[5,4-c]pyridin-2-yl)methanone)] and `O=C(c1nc2c(s1)CN(CCF)CC2)N1CCc2c(-c3cccc4c3CCN4C(=O)c3nc4c(s3)CN(CCF)CC4)cccc21` [Example 87, [4,4′-biindoline]-1,1′-diylbis((5-(2-fluoroethyl)-4,5,6,7-tetrahydrothiazolo[5,4-c]pyridin-2-yl)methanone)] cannot be ordered by IC50: < 25 nM for the first, < 25 nM for the second.

`O=C(c1nc2c(s1)CN(CC(F)(F)F)CC2)N1CCc2c(-c3cccc4c3CCN4C(=O)c3nc4c(s3)CN(CC(F)(F)F)CC4)cccc21` [Example 84, [4,4′-biindoline]-1,1′-diylbis((5-(2,2,2-trifluoroethyl)-4,5,6,7-tetrahydrothiazolo[5,4-c]pyridin-2-yl)methanone)] and `O=C(c1nc2c(s1)CN(CC(F)F)CC2)N1CCc2c(-c3cccc4c3CCN4C(=O)c3nc4c(s3)CN(CC(F)F)CC4)cccc21` [Example 85, [4,4′-biindoline]-1,1′-diylbis((5-(2,2-difluoroethyl)-4,5,6,7-tetrahydrothiazolo[5,4-c]pyridin-2-yl)methanone)] fall in the same range of IC50: 25 to 100 nM for the first, 25 to 100 nM for the second.

`O=C(c1nc2c(s1)CN(C1COC1)CC2)N1CCc2c(-c3cccc4c3CCN4C(=O)c3nc4c(s3)CN(C3COC3)CC4)cccc21` [Example 88, [4,4′-biindoline]-1,1′-diylbis((5-(oxetan-3-yl)-4,5,6,7-tetrahydrothiazolo[5,4-c]pyridin-2-yl)methanone)] and `O=C(Nc1cccc(-c2cccc(NC(=O)c3nc4c(s3)CN(C3COC3)CC4)c2Cl)c1Cl)c1nc2c(s1)CN(C1COC1)CC2` [Example 92, N,N′-(2,2′-dichloro-[1,1′-biphenyl]-3,3′-diyl)bis(5-(oxetan-3-yl)-4,5,6,7-tetrahydrothiazolo[5,4-c]pyridine-2-carboxamide)] cannot be ordered by IC50: < 25 nM for the first, < 25 nM for the second.

`NC(=O)CN1CCc2nc(C(=O)Nc3cccc(-c4cccc(NC(=O)c5nc6c(s5)CN(CC(N)=O)CC6)c4Cl)c3Cl)sc2C1` [Example 90, N,N′-(2,2′-dichloro-[1,1′-biphenyl]-3,3′-diyl)bis(5-(2-amino-2-oxoethyl)-4,5,6,7-tetrahydrothiazolo[5,4-c]pyridine-2-carboxamide)] and `O=C(Nc1cccc(-c2cccc(NC(=O)c3nc4c(s3)CNCC4)c2Cl)c1Cl)c1ncc(CNCCO)s1` [Example 97, N-(2,2′-dichloro-3′-(5-(((2-hydroxyethyl)amino)methyl)thiazole-2-carboxamido)-[1,1′-biphenyl]-3-yl)-4,5,6,7-tetrahydrothiazolo[5,4-c]pyridine-2-carboxamide] cannot be ordered by IC50: < 25 nM for the first, < 25 nM for the second.

`Cc1c(NC(=O)c2nc3c(s2)CNCC3)cc(Cl)cc1-c1cc(Cl)cc(NC(=O)c2nc3c(s2)CNCC3)c1C` [Example 93, N,N′-(5,5′-dichloro-2,2′-dimethyl-[1,1′-biphenyl]-3,3′-diyl)bis(4,5,6,7-tetrahydrothiazolo[5,4-c]pyridine-2-carboxamide)] and `Cc1c(NC(=O)c2nc3c(s2)CNCC3)cc(F)cc1-c1cc(F)cc(NC(=O)c2nc3c(s2)CNCC3)c1C` [Example 96, N,N′-(5,5′-difluoro-2,2′-dimethyl-[1,1′-biphenyl]-3,3′-diyl)bis(4,5,6,7-tetrahydrothiazolo[5,4-c]pyridine-2-carboxamide)] cannot be ordered by IC50: < 25 nM for the first, < 25 nM for the second.

`Cc1ccc(-c2ccc(C)c(NC(=O)c3nc4c(s3)CNCC4)c2C)c(C)c1NC(=O)c1nc2c(s1)CNCC2` [Example 94, N,N′-(2,2′,4,4′-tetramethyl-[1,1′-biphenyl]-3,3′-diyl)bis(4,5,6,7-tetrahydrothiazolo[5,4-c]pyridine-2-carboxamide)] and `Cc1c(NC(=O)c2nc3c(s2)CNCC3)cc(F)cc1-c1cccc2c1CCN2C(=O)c1nc2c(s1)CNCC2` [Example 95, N-(5-fluoro-2-methyl-3-(1-(4,5,6,7-tetrahydrothiazolo[5,4-c]pyridine-2-carbonyl)indolin-4-yl)phenyl)-4,5,6,7-tetrahydrothiazolo[5,4-c]pyridine-2-carboxamide] cannot be ordered by IC50: < 25 nM for the first, < 25 nM for the second.

`O=C(Nc1cccc(-c2cccc(Nc3nccc4cc(CNCCO)cnc34)c2Cl)c1Cl)c1ncc(CNCCO)s1` [Example 98, N-(2,2′-dichloro-3′-((3-(((2-hydroxyethyl)amino)methyl)-1,7-naphthyridin-8-yl)amino)-[1,1′-biphenyl]-3-yl)-5-(((2-hydroxyethyl)amino)methyl)thiazole-2-carboxamide] and `O=C(c1nc2c(s1)CNCC2)N1CCc2c(-c3cccc4c3CCN4c3nccc4cc(CNCCO)cnc34)cccc21` [Example 100, (1′-(3-(((2-hydroxyethyl)amino)methyl)-1,7-naphthyridin-8-yl)-[4,4′-biindolin]-1-yl)(4,5,6,7-tetrahydrothiazolo[5,4-c]pyridin-2-yl)methanone] cannot be ordered by IC50: < 25 nM for the first, < 25 nM for the second.

With `O=C(c1ncc(CNCCO)s1)N1CCc2c(-c3cccc4c3CCN4C(=O)c3nc4c(s3)CNCC4)cccc21` [Example 99, (5-(((2-hydroxyethyl)amino)methyl)thiazol-2-yl)(1′-(4,5,6,7-tetrahydrothiazolo[5,4-c]pyridine-2-carbonyl)-[4,4′-biindolin]-1-yl)methanone] the IC50 was < 25 nM.
